Converted amounts (≈) assume the structure as drawn.
How the values were obtained:
Enterobacter = test: MIC, standard in vitro assay (Table I); type: cell-based; conditions: 10^6 CFU; 3 strains tested
Excerpt: (§1) Using standard in vitro assay techniques, minimal inhibitory concentrations (MIC) have been determined for difficidin and oxydifficidin against a number of bacteria.

Escherichia coli = test: MIC, standard in vitro assay (Table I); type: cell-based; conditions: 10^6 CFU; 4 strains tested
Excerpt: as §1

Klebsiella pneumoniae = test: MIC, standard in vitro assay (Table I); type: cell-based; conditions: 10^6 CFU; 2 strains tested
Excerpt: as §1

Proteus = test: MIC, standard in vitro assay (Table I); type: cell-based; conditions: for MIC Range: 10^6 CFU, 3 strains tested
Excerpt: as §1

Pseudomonas aeruginosa = test: MIC, standard in vitro assay (Table I); type: cell-based; conditions: for MIC Range: 10^6 CFU, 3 strains tested
Excerpt: as §1

Salmonella typhimurium = test: MIC, standard in vitro assay (Table I); type: cell-based; conditions: for MIC Range: 10^6 CFU, 1 strain tested
Excerpt: as §1

Serratia marcescens = test: MIC, standard in vitro assay (Table I); type: cell-based; conditions: for MIC Range: 10^6 CFU, 1 strain tested
Excerpt: as §1

Staphylococcus aureus = test: MIC, standard in vitro assay (Table I); type: cell-based; conditions: for MIC Range: 10^6 CFU, 3 strains tested
Excerpt: as §1

Streptococcus faecalis = test: MIC, standard in vitro assay (Table I); type: cell-based; conditions: 10^6 CFU; 1 strain tested
Excerpt: as §1

E. coli = test: MIC, in vitro agar dilution assay, aerobic bacteria (Table II); type: cell-based; conditions: 10^6 CFU per spot
Excerpt: (§2) Further evaluations of the antibacterial spectrum of difficidin and oxydifficidin were undertaken, especially as compared to the antibacterial spectrum of the valuable antibiotic cefoxitin, which is well known for its wide spectrum of antibacterial activity. An in vitro agar dilution assay was used, inoculum 10^6 CFU per spot. Table II below illustrates the results obtained for various aerobic bacteria, and Table III illustrates the results obtained for various anaerobic bacteria.

S. aureus = test: as above; type: cell-based; conditions: 10^6 CFU per spot
Excerpt: as §2

Strep. faecalis = test: as above; type: cell-based; conditions: 10^6 CFU per spot
Excerpt: as §2

Prot. vulgaris = test: as above; type: cell-based; conditions: 10^6 CFU per spot
Ps. aeruginosa = test: as above; type: cell-based; conditions: Ps. aeruginosa, second unmarked strain; 10^6 CFU per spot
Actinomyces naeslundii = test: MIC, in vitro agar dilution assay, anaerobic bacteria (Table III); type: cell-based; conditions: 10^6 CFU per spot
[1] = test system: Bifidobacterium dentium Fox^r; test: as above; type: cell-based; conditions: Bifidobacterium dentium Fox^r; 10^6 CFU per spot
[2] = test system: Fusobacterium mortiferum Fox^r; test: as above; type: cell-based; conditions: 10^6 CFU per spot
solubility = type: physicochemical; conditions: water, lower alcohols such as methanol and ethanol
pH of aqueous solution = type: physicochemical
aerobic microorganisms = test: antibacterial activity against aerobic microorganisms, summary; type: cell-based; conditions: such as Pseudomonas aeruginosa and Staphyloccoccus aureus
[3] = decomposition during lyophilization; type: physicochemical; conditions: lyophilization of (IV) to (V)
Experimental: There is evidence that from 10-15% decomposition of oxydifficidin may have occurred during lyophilization of (IV) to (V). Based on the lyophilized weight of (V) and the UV analysis of (IV), A1 cm^1% (275 nm)--438 is calculated.

Question: Which “MIC Range” value (Enterobacter) does the source give for `C=CC=C(C)CCC1CC=CC=C(C)C(OP(=O)(O)O)CCCC=CC=CC=CCC(C)C(=C)CC(=O)O1` (centres unmarked) [Difficidin, difficidin] here?
Answer: The value was 8 to 16 µg/mL.

Question: What about the “MIC Range” value (Escherichia coli) of the same molecule?
Answer: The value was 8 µg/mL (≈ 14.7 µM).

Question: What about the “MIC Range” value (Klebsiella pneumoniae) of the same molecule?
Answer: Its value is 8 µg/mL (≈ 14.7 µM).

Question: What about the “MIC Range” value (Proteus) of the same molecule?
Answer: Its value is 0.5 to 8 µg/mL.

Question: And the “effectiveness of difficidin relative to oxydifficidin” value (Proteus; Proteus, in most cases)?
Answer: Its value is “four times more effective”.

Question: And the “MIC Range” value (Pseudomonas aeruginosa)?
Answer: The value was 8 µg/mL (≈ 14.7 µM).

Question: What about the “effectiveness of difficidin relative to oxydifficidin” value (Pseudomonas aeruginosa; Ps. aeruginosa, in most cases) of the same molecule?
Answer: Its value is “four times more effective”.

Question: And the “MIC Range” value (Salmonella typhimurium)?
Answer: Its value is 8 µg/mL (≈ 14.7 µM).

Question: What about the “effectiveness of difficidin relative to oxydifficidin” value (Salmonella typhimurium; Salmonella typhimurium, in most cases) of the same molecule?
Answer: Its value is “four times more effective”.

Question: And the “MIC Range” value (Serratia marcescens)?
Answer: The value was 4 µg/mL (≈ 7.34 µM).

Question: What about the “effectiveness of difficidin relative to oxydifficidin” value (Serratia marcescens; Serratia marcescens, in most cases) of the same molecule?
Answer: The value was “four times more effective”.

Question: What about the “MIC Range” value (Staphylococcus aureus) of the same molecule?
Answer: Its value is 8 to 16 µg/mL.

Question: And the “effectiveness of difficidin relative to oxydifficidin” value (Staphylococcus aureus; S. aureus, in most cases)?
Answer: Its value is “four times more effective”.

Question: What about the “MIC Range” value (Streptococcus faecalis) of the same molecule?
Answer: The value was 128 µg/mL (≈ 235 µM).

Question: What about the MIC (E. coli) of the same molecule?
Answer: The MIC was 8.0 µg/mL (≈ 14.7 µM).

Question: What about the MIC (S. aureus; first unmarked strain) of the same molecule?
Answer: The MIC was 16.0 µg/mL (≈ 29.4 µM).

Question: What about the MIC (S. aureus; second unmarked strain) of the same molecule?
Answer: The MIC was 8.0 µg/mL (≈ 14.7 µM).

Question: What about the MIC (Strep. faecalis) of the same molecule?
Answer: Its MIC is greater than 128.0 µg/mL.

Question: What about the MIC (Prot. vulgaris) of the same molecule?
Answer: The MIC was 0.5 µg/mL (≈ 0.918 µM).

Question: What about the MIC (Ps. aeruginosa) of the same molecule?
Answer: The MIC was 8.0 µg/mL (≈ 14.7 µM).

Question: What about the MIC (Actinomyces naeslundii) of the same molecule?
Answer: The MIC was greater than 128 µg/mL.

Question: What about the MIC [1] of the same molecule?
Answer: The MIC was 32 µg/mL (≈ 58.8 µM).

Question: And the MIC [2]?
Answer: The MIC was 0.03 µg/mL (≈ 0.0551 µM).

Question: And the solubility (solubility)?
Answer: The solubility was “soluble in water, lower alcohols such as methanol and ethanol”.

Question: And the “pH of 0.1% by weight aqueous solution” value (pH of aqueous solution)?
Answer: Its value is 6.9.

Question: What about the “potency against aerobic microorganisms relative to oxydifficidin” value (aerobic microorganisms) of the same molecule?
Answer: Its value is “more potent than oxydifficidin”.

Question: What does the source list for `C=CC=C(C)CCC1CC=CC=C(C)C(OP(=O)(O)O)CCCC=CC=CC=CC(O)C(C)C(=C)CC(=O)O1` (centres unmarked) [Oxydifficidin, oxydifficidin]?
Answer: MIC Range (Enterobacter): 32 to 64 µg/mL; MIC Range (Escherichia coli): 4 to 16 µg/mL; MIC Range (Klebsiella pneumoniae): 8 µg/mL (≈ 14.3 µM); MIC Range (Proteus): 2 to 32 µg/mL; MIC Range (Pseudomonas aeruginosa): 16 to 32 µg/mL; MIC Range (Salmonella typhimurium): 32 µg/mL (≈ 57.1 µM); MIC Range (Serratia marcescens): 16 µg/mL (≈ 28.5 µM); MIC Range (Staphylococcus aureus): 32 to 128 µg/mL; MIC Range (Streptococcus faecalis): 128 µg/mL (≈ 228 µM); MIC (E. coli): 4.0 µg/mL (≈ 7.13 µM); MIC (S. aureus; first unmarked strain): > 128.0 µg/mL; MIC (S. aureus; second unmarked strain): 32.0 µg/mL (≈ 57.1 µM); MIC (Strep. faecalis): > 128.0 µg/mL; MIC (Prot. vulgaris): 8.0 µg/mL (≈ 14.3 µM); MIC (Ps. aeruginosa): 32.0 µg/mL (≈ 57.1 µM); MIC (Actinomyces naeslundii): 64 µg/mL (≈ 114 µM); MIC [2]: 0.125 µg/mL (≈ 0.223 µM); decomposition during lyophilization [3]: 10-15%

Reference: patent publication US4545991A, “Difficidin and derivative antibacterials” (Merck & Co., Inc., priority 1983, dated 1985)
